What was measured:
A1 and A2 receptors = conditions: selectivity; cited from earlier work
A2 receptor = conditions: relative to NECA; cited from earlier work
rat adipocytes = assay: In vitro lipolysis assay (antilipolytic activity in rat adipocytes); assay type: cell-based; conditions: Rattus norvegicus, Adipocyte, 1 h; norepinephrine-stimulated lipolysis, glycerol assayed, 60 min; read-out: Lipo ec50
Method: Determination of Antilipolytic Activity in Rat Adipocytes
Isolation of Adipocytes from Epididymal Fat Pads
Adipose tissue is removed from anesthetized rats and rinsed twice in incubation medium (2.09 g sodium bicarbonate and 0.04 g EDTA, disodium salt, in 1 L Krebs buffer). Each rat (300-350 g) yields approximately 4 mL of adipose tissue. The adipose tissue (35 mL) is cut into small pieces with scissors and washed with incubation medium (50 mL). The mixture is poured into the barrel of a 50 mL syringe to which is attached a short piece of clamped tubing instead of a needle. The aqueous phase is allowed to drain. A second wash with incubation medium is passed through the syringe. The tissue is added to 50 mL of collagenase solution (collagenase (90 mg), bovine serum albumin (BSA) (500 mg), and 0.1 M calcium chloride solution (1 mL), in incubation medium (50 mL)) in a 1 L bottle. The mixture is shaken in an environmental at 37° C. for about 60 minutes under an atmosphere of 95% oxygen/5% carbon dioxide to effect digestion of the tissue. The dispersed cells are poured through 2 layers of cheese cloth into a 100 mL plastic beaker. The undigested clumps in the cloth are rinsed once with incubation medium (20 mL). The cells in the beaker are centrifuged in 2 plastic tubes for 30 seconds at room temperature at 300 rpm. The aqueous phase is aspirated from beneath the loosely packed layer of floating fat cells and discarded. The adipocytes are gently poured into a 250 mL plastic beaker containing 100 mL of rinse solution (1 g BSA per 100 mL incubation medium). After gentle stirring the centrifugation step is repeated. Another wash with rinse solution follows. The cells are pooled and their volume is estimated with a graduated cylinder. The adipocytes are diluted in twice their volume of assay buffer (incubation medium (120 mL), BSA (1.2 g), pyruvic acid (13 mg)).
The assay is performed in 20 mL plastic scintillation vials and the total assay volume is 4.2 mL. Assay buffer (2.5 mL), diluted adipocytes (1.5 mL), and a solution of the compound to be tested (12.3 μL) adenosine agonist (12.3 μl; varying concentration) is incubated in the environmental shaker for 15 minutes, then the reaction is started with norepinephrine solution (41.2 μL) (10 nM, in a carrier solution containing water (100 mL), BSA (4 mg), and 0.1 M EDTA (20 μL))and adenosine deaminase (1 μg/mL, 41.2 μl). After sixty minutes in the shaker the reaction is terminated by putting the vials on ice. […] The hard lipid layer is removed by aspiration and the aqueous layer is assayed for glycerol (400 μl of sample). The positive control is done in the absence of any adenosine agonist, substituting water in place of the solution to be tested.

[1] = Plasma free fatty acids in anaesthetized starved male Wistar rats; assay type: in vivo; design: unit not given here
Method: Measurement of Plasma Lipdis (Free Fatty Acids, Triglycerides, Cholesterol) in Anaesthetized Rats.
Plasma lipid levels were assayed in anaesthetized rats. Briefly, rats were anaesthetized with an intraperitoneal injection of pentobarbital sodium (60 mg/kg), tracheotomized, and one jugular vein per rat was cannulated for intravenous administration (bolus injection or infusion). Anesthesia was mantained for up to 7 hours by subcutaneous infusion of pentobarbital sodium (adjusted to the anesthetic depth of the individual animal; about 24 mg/kg/h). Body temperature was monitored with a rectal probe thermometer, and temperature was maintained at 37° C. by means of a heated surgical plate. The rats were allowed to stabilize their blood levels after surgery for up to 2 hours, after which the test compound was injected intraperitoneally. Blood samples for glucose analysis (10 μl) were obtained from the tip of the tail every 15 minutes. For analysis of plasma lipids blood samples (0.3 ml) were obtained from the jugular vein either every 10 to 15 minutes for up to 2 hours, or every hour for up to 5 hours after compound administration. Standard enzymatic procedures were used to determine blood glucose (Bergmeyer, 1974).

[2] = Insulin tolerance test (3 U/kg s.c.) in insulin resistant Zucker Fatty rats after 3 weeks pretreatment; assay type: in vivo; design: unit not given here
Method: Measurement of Insulin Sensitivity in Conscious Rats.
Insulin resistant Zucker Fatty rats or Zucker Diabetic Fatty (ZDF) rats were treated for up to 3 weeks with the test compound orally once daily. Plasma parameters were obtained by retroorbital bleeding during inhalation anaesthesia on respective study days. […] In the case of improvement of insulin sensitivity by the test compound the blood glucose reduction was much more pronounced and prolonged compared to that of the control group.

## OC[C@H]1O[C@@H](n2cnc3c(NC4CCCC4)ncnc32)[C@H](O)[C@@H]1O [CPA, Cyclopentyladenosine]
A1 and A2 receptors
  A2/A1 ratio: 780

## Nc1nc(Nc2ccccc2)nc2c1ncn2[C@@H]1O[C@H](CO)[C@@H](O)[C@H]1O [CV-1808]
A2 receptor
  fold less potent than NECA in its affinity for the A2 receptor: 10 fold
A1 and A2 receptors
  A2/A1 ratio: 0.19

## COC[C@H]1C[C@@H](n2cnc3c(N[C@H]4CCN(c5ccc(C(F)(F)F)cn5)C4)ncnc32)[C@H](O)[C@@H]1O [Example 3, (1R,2S,3R,5R)-5-methoxymethyl-3-[6-[1-(5-trifluoromethylpyridin2-yl)pyrrolidin-3(S)-ylamino]-purin-9-yl]cyclopentane-1,2-diol]
Rat adipocytes
  EC50: 5.62 nM
[1]; 10 mg/kg i.p., 10 minutes
  plasma free fatty acids, mean: 0.42
[1]; 10 mg/kg i.p., 20 minutes
  plasma free fatty acids, mean: 0.26
[1]; 10 mg/kg i.p., 30 minutes
  plasma free fatty acids, mean: 0.19
[1]; 10 mg/kg i.p., 40 minutes
  plasma free fatty acids, mean: 0.19
[1]; 10 mg/kg i.p., 60 minutes
  plasma free fatty acids, mean: 0.13
[1]; 10 mg/kg i.p., −60 minutes
  plasma free fatty acids, mean: 0.61
[1]; 30 mg/kg i.p., 10 minutes
  plasma free fatty acids, mean: 0.24
[1]; 30 mg/kg i.p., 20 minutes
  plasma free fatty acids, mean: 0.14
[1]; 30 mg/kg i.p., 30 minutes
  plasma free fatty acids, mean: 0.13
[1]; 30 mg/kg i.p., 40 minutes
  plasma free fatty acids, mean: 0.10
[1]; 30 mg/kg i.p., 60 minutes
  plasma free fatty acids, mean: 0.09
[1]; 30 mg/kg i.p., −60 minutes
  plasma free fatty acids, mean: 0.52
[2]; 1 mg/kg p.o. for 3 weeks (first group), 0 minutes after insulin
  Insulin tolerance test, blood glucose, mean: 4.60
[2]; 1 mg/kg p.o. for 3 weeks (first group), 60 minutes after insulin
  Insulin tolerance test, blood glucose, mean: 1.96
[2]; 1 mg/kg p.o. for 3 weeks (first group), 120 minutes after insulin
  Insulin tolerance test, blood glucose, mean: 1.59
[2]; 1 mg/kg p.o. for 3 weeks (first group), 180 minutes after insulin
  Insulin tolerance test, blood glucose, mean: 1.72
[2]; 1 mg/kg p.o. for 3 weeks (first group), 240 minutes after insulin
  Insulin tolerance test, blood glucose, mean: 3.02
[2]; 1 mg/kg p.o. for 3 weeks (first group), 300 minutes after insulin
  Insulin tolerance test, blood glucose, mean: 5.13
[2]; 1 mg/kg p.o. for 3 weeks (first group), 360 minutes after insulin
  Insulin tolerance test, blood glucose, mean: 4.98
[2]; 1 mg/kg p.o. for 3 weeks (first group), 420 minutes after insulin
  Insulin tolerance test, blood glucose, mean: 4.04
[2]; second group, (1 mg/kg p.o.), 3 weeks, 0 minutes after insulin
  Insulin tolerance test, blood glucose, mean: 5.17
[2]; second group, (1 mg/kg p.o.), 3 weeks, 60 minutes after insulin
  Insulin tolerance test, blood glucose, mean: 1.99
[2]; second group, (1 mg/kg p.o.), 3 weeks, 120 minutes after insulin
  Insulin tolerance test, blood glucose, mean: 1.57
[2]; second group, (1 mg/kg p.o.), 3 weeks, 180 minutes after insulin
  Insulin tolerance test, blood glucose, mean: 1.44
[2]; second group, (1 mg/kg p.o.), 3 weeks, 240 minutes after insulin
  Insulin tolerance test, blood glucose, mean: 2.54
[2]; second group, (1 mg/kg p.o.), 3 weeks, 300 minutes after insulin
  Insulin tolerance test, blood glucose, mean: 4.35
[2]; second group, (1 mg/kg p.o.), 3 weeks, 360 minutes after insulin
  Insulin tolerance test, blood glucose, mean: 5.63
[2]; second group, (1 mg/kg p.o.), 3 weeks, 420 minutes after insulin
  Insulin tolerance test, blood glucose, mean: 6.09
other
  melting point: 166 to 168 °C
